Test results: US20210238169A1, “PROCESS FOR PREPARING A COMPOUND OF FORMULA (XIII)” (PULMOCIDE LIMITED, priority 2014, published 2021)
Converted amounts (≈) assume the structure as drawn.

Columns and labels:
Assay type in all cases: cell-based
Aspergillus flavus = assay: Fungus panel screening, CLSI broth microdilution; settings: strain ATCC204304, visual inspection (CLSI); for MIC: read-out: MIC100
Method: (§1) Fungus panel screening was conducted by Eurofins Panlabs Inc. The MIC and MIC50 values of the test articles were determined following the guidelines of the Clinical and Laboratory Standards Institute, broth microdilution methods for yeast (CLSI M27-A2), (CLSI, 2002) and for filamentous fungi (CLSI M38-A), (CLSI, 2008).

Cryptococcus neoformans = assay: Fungus panel screening, CLSI broth microdilution; settings: strain ATCC24067, visual inspection (CLSI); for MIC: read-out: MIC100
Method: as §1

[1] = system: Aspergillus fumigatus (NCPF2010); assay: Aspergillus fumigatus invasion in human alveoli bilayers (transwells), GM in lower chamber; settings: for DFB50 (days taken to reach a fungal burden of 50% of control) / GM Levels in the Lower Chamber, % inhibition vs. control / GM Levels in the Lower Chamber, OD value: Compound (I) 0.1 μg/mL upper chamber, Posaconazole 0.01 μg/mL lower chamber
Method: In vitro models of human alveoli, consisting of a bilayer of human alveolar epithelial cells and endothelial cells, were prepared as previously described (Hope et al., 2007). […] Primary human pulmonary artery endothelial cells (HPAEC) were harvested and diluted to 10^6 cells/mL in EGM-2 media (Lonza, Basel, Switzerland). Transwells were inverted and the cell suspension (100 μL/well) was applied to the base of each transwell. The inverted transwells were incubated at RT within a flow hood for 2 hr after which they were turned upright. EGM-2 media was added to the lower (700 μL/well) and upper (100 μL/well) compartments and the transwells were incubated for 48 hr (37° C., 5% CO2). The EGM-2 media in the lower compartment was then replaced with fresh EGM-2 media. A549 cells were harvested and diluted to 5×10^5 cells/mL in 10% EBM, then added to the upper compartment (100 μL/well) of all transwells and the plates incubated for 72 hr (37° C., 5% CO2). Conidia of Aspergillus fumigatus (the itraconazole sensitive strain NCPF2010 and the itraconazole resistant strain TR34-L98H) were cultured separately in Sabouraud dextrose agar for 3 days. A stock conidia suspension of either strain was prepared from a Sabouraud dextrose agar culture by washing with PBS-tween (10 mL; PBS containing 0.05% Tween-20, 100 U/mL Penicillin and 100 U/mL Streptomycin). The conidia count was assessed using a Neubauer haemocytometer and adjusted to 10^6 conidia/mL with PBS. A working stock of conidia was prepared in EBM (conc of 10^5 conidia/mL) immediately prior to use.
The media in the upper compartment was aspirated and that containing the appropriate test and reference compounds, or vehicle, were added (100 μL/well). Transwells were then transferred into the 24-well plate containing the test and reference compounds or DMSO vehicle. After incubation for 1 hr (35° C., 5% CO2) the conidia suspension (10 μL/well) was added to the upper compartment of each transwell. Plates were then incubated for 24 hr (35° C., 5% CO2). Supernatants from each compartment (5 μL/compartment) were collected and stored (−20° C.). Media was replaced daily after collection of the supernatants and all wells were treated with test and reference compounds or with DMSO, as described above, for 3 days. Samples continued to be collected until fungal growth was visible by eye in all transwells. The levels of GM in the supernatant in lower compartment were then measured by ELISA (BioRad, CA, USA) as an index of Aspergillus fumigatus invasion.

Row | Structure (SMILES) | MIC50 (Aspergillus flavus) [µg/mL] | MIC (Aspergillus flavus) [µg/mL] | MIC50 (Cryptococcus neoformans) [µg/mL] | MIC (Cryptococcus neoformans) [µg/mL] | DFB50 (days taken to reach a fungal burden of 50% of control) [1] [days] | GM Levels in the Lower Chamber, % inhibition vs. control ([1]; Treatment Day 1) [%] | GM Levels in the Lower Chamber, OD value ([1]; Treatment Day 1) [OD] | GM Levels in the Lower Chamber, % inhibition vs. control ([1]; Treatment Day 2) [%] | GM Levels in the Lower Chamber, OD value ([1]; Treatment Day 2) [OD] | GM Levels in the Lower Chamber, % inhibition vs. control ([1]; Treatment Day 3) [%] | GM Levels in the Lower Chamber, OD value ([1]; Treatment Day 3) [OD] | GM Levels in the Lower Chamber, % inhibition vs. control ([1]; Treatment Day 4) [%] | GM Levels in the Lower Chamber, OD value ([1]; Treatment Day 4) [OD] | GM Levels in the Lower Chamber, % inhibition vs. control ([1]; Treatment Day 5) [%] | GM Levels in the Lower Chamber, % inhibition vs. control ([1]; Treatment Day 7) [%] | GM Levels in the Lower Chamber, OD value ([1]; Treatment Day 7) [OD] | GM Levels in the Lower Chamber, % inhibition vs. control ([1]; Treatment Day 8) [%] | GM Levels in the Lower Chamber, OD value ([1]; Treatment Day 8) [OD] | further results
1 | Cc1cc(N2CCN(c3ccc(C(=O)Nc4ccc(F)cc4)cc3)CC2)ccc1OC[C@@H]1CO[C@@](Cn2cncn2)(c2ccc(F)cc2F)C1 [Compound (I), 4-(4-(4-(((3R,5R)-5-((1H-1,2,4-triazol-1-yl)methyl)-5-(2,4-difluorophenyl)tetrahydrofuran-3-yl)methoxy)-3-methylphenyl)piperazin-1-yl)-N-(4-fluorophenyl)benzamide] | 1 (≈ 1.46 µM) | > 8 | 0.008 (≈ 0.0117 µM) | 1 (≈ 1.46 µM) | 1.13 | 86 | 0.091 | 3.4 | 1.15 | 3.7 | 1.14 | 4.5 | 1.13 | 0.3 | 0.9 | 1.16 | 2.8 | 1.13 | effect of combination therapy on invasion in alveoli bilayers ([1]; Compound (I) combined with intraconazole, voriconazole or caspofungin (results not shown)): synergistic or additive effect
2 | CC[C@@H]([C@H](C)O)n1ncn(-c2ccc(N3CCN(c4ccc(OC[C@@H]5CO[C@@](Cn6cncn6)(c6ccc(F)cc6F)C5)cc4)CC3)cc2)c1=O [Posaconazole] | 0.063 (≈ 0.0899 µM) | 0.13 (≈ 0.186 µM) | 0.016 (≈ 0.0228 µM) | 0.25 (≈ 0.357 µM) | 1.45 | 91 | 0.064 | 15 | 1.01 | 4.1 | 1.14 | 1.1 | 1.17 | −0.6 | 0.3 | 1.17 | 0.8 | 1.15 | GM Levels in the Lower Chamber, OD value ([1]; Treatment Day 0): 0 OD; GM Levels in the Lower Chamber, OD value ([1]; Treatment Day 5): 1.18 OD; GM Levels in the Lower Chamber, % inhibition vs. control ([1]; Treatment Day 6): −1.1%; GM Levels in the Lower Chamber, OD value ([1]; Treatment Day 6): 1.19 OD
